Patent US20240270762A1, “PENICILLIN-BINDING PROTEIN INHIBITORS” (priority 2021, published 2024)
Values after ≈ are worked out from the molar mass of the structure shown.

Assays:
[1] = test system: N. gonorrhoeae WHO G; experiment: Liquid broth MIC in Fastidious broth; conditions: Neisseria gonorrhoeae, read-out: Minimum Inhibitory Concentration, WHO G
[2] = target: T1, PBP3 from Acinetobacter baumannii (ATCC 19606) (Acinetobacter baumannii, UniProt A0ABX6CK25); experiment: Bocillin-FL fluorescence polarization competition binding, A. baumannii PBP3; conditions: fluorescence polarization competition binding assay using Bocillin-FL; read-out: A. baumannii PBP3 Potency
T1 sequence (A0ABX6CK25 64-610): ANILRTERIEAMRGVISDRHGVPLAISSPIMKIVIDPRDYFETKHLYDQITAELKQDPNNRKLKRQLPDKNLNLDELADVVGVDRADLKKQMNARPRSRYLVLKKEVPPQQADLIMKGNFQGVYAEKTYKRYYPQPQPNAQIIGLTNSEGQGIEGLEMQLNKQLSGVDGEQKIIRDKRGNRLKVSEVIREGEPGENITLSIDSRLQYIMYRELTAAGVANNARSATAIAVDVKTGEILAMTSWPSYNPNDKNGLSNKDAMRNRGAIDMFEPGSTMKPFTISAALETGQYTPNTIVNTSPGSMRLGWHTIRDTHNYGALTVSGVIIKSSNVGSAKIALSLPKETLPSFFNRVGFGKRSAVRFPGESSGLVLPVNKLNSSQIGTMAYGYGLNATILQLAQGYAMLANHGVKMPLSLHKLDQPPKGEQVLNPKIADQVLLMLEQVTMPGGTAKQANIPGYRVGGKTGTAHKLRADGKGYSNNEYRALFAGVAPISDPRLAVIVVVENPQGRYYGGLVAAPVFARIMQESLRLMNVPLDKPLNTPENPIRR
How it was run: (§1)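 Purified PBP was preincubated with inhibitor (E. coli PBP3 1.5 μM, 30 min; P. aeruginosa PBP3 0.75 μM, A. baumannii PBP3 0.2 μM and PBP1a 1 μM, 15 min), then Bocillin-FL (0.1 μM; 0.05 μM for PBP1a) added and FP read up to 60 min. EC50 = 50% loss of bound probe.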

[3] = target: T2, PBP1a from Acinetobacter baumannii (ATCC 19606) (Acinetobacter baumannii, UniProt A0ABX6CK30); experiment: Bocillin-FL fluorescence polarization competition binding, A. baumannii PBP1a; conditions: fluorescence polarization competition binding assay using Bocillin-FL; read-out: A. baumannii PBP1a Potency
T2 sequence (A0ABX6CK30 1-851): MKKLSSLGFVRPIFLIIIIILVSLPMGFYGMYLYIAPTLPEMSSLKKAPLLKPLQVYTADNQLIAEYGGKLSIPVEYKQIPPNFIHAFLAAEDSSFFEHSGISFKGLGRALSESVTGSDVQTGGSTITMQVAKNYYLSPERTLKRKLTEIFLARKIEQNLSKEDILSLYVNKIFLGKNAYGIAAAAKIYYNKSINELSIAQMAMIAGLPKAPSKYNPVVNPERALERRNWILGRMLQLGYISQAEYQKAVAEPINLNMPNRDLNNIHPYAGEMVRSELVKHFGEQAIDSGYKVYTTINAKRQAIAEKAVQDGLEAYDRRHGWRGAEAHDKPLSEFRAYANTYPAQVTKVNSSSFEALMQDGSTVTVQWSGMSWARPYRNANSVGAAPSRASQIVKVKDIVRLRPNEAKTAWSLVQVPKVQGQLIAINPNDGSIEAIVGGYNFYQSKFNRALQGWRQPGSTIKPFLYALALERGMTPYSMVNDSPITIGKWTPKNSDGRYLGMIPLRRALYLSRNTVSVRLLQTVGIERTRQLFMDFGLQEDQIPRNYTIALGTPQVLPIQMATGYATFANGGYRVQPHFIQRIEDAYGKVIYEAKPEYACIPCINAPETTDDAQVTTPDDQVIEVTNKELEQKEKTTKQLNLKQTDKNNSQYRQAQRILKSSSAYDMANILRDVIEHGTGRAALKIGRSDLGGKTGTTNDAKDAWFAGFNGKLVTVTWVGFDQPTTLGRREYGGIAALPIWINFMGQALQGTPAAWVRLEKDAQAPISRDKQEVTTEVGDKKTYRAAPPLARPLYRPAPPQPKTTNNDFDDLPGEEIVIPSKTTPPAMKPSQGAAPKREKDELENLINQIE
How it was run: as §1

[4] = target: T3, PBP3 from Escherichia coli (K-12) (Escherichia coli, UniProt P0AD68); experiment: Bocillin-FL fluorescence polarization competition binding, E. coli PBP3
T3 construct: made in house
How it was run: as §1

T3 sequence (P0AD68 1-577): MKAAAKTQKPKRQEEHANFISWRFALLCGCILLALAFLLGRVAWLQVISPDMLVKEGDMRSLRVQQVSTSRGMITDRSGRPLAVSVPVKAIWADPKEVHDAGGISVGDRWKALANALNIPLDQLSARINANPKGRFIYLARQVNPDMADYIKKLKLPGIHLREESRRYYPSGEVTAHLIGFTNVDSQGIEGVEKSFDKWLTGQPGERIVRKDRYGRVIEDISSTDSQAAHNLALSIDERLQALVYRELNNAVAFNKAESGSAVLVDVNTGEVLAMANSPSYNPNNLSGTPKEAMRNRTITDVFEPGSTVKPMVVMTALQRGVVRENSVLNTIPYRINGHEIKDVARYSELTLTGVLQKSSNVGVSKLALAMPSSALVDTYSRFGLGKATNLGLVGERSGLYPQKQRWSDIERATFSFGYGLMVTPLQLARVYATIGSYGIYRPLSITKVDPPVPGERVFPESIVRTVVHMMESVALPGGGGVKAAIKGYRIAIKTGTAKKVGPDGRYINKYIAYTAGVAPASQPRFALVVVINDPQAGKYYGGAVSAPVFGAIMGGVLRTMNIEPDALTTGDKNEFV

Row | SMILES | MIC [1] [µg/mL] | IC50 [2] [µM] | IC50 [3] [µM] | EC50 [4] [µM]
1 | O=C(NCCCS(=O)(=O)N1CCN(C(=O)NC(C(=O)N[C@H]2Cc3ccc(F)c(C(=O)O)c3OB2O)c2cc(F)c(O)c(O)c2Cl)C1=O)Nc1cccc(O)c1 (stereo partly drawn) [Example 277, (3R)-3-(2-(2-chloro-5-fluoro-3,4-dihydroxyphenyl)-2-(3-((3-(3-(3-hydroxyphenyl)ureido)propyl)sulfonyl)-2-oxoimidazolidine-1-carboxamido)acetamido)-7-fluoro-2-hydroxy-3,4-dihydro-2H-benzo[e][1,2]oxaborinine-8-carboxylic acid] | 16 to 32 (≈ 19.7 to 39.5 µM) | < 10 | > 250 | < 10
2 | O=C(NCCCN1CCN(C(=O)N[C@H](C(=O)N[C@H]2Cc3ccc(F)c(C(=O)O)c3OB2O)c2cc(F)c(O)c(O)c2Cl)C1=O)Nc1ccc(O)cc1 [Example 283, (R)-3-((S)-2-(2-chloro-5-fluoro-3,4-dihydroxyphenyl)-2-(3-(3-(3-(4-hydroxyphenyl)ureido)propyl)-2-oxoimidazolidine-1-carboxamido)acetamido)-7-fluoro-2-hydroxy-3,4-dihydro-2H-benzo[e][1,2]oxaborinine-8-carboxylic acid] | > 64 | 50 to 250 | > 250 | > 250
3 | O=C(NCCCN1CCN(C(=O)NC(C(=O)N[C@H]2Cc3ccc(F)c(C(=O)O)c3OB2O)c2cc(F)c(O)c(O)c2Cl)C(=O)C1=O)c1ccncc1Cl (stereo partly drawn) [Example 295, (3R)-3-(2-(2-chloro-5-fluoro-3,4-dihydroxyphenyl)-2-(4-(3-(3-chloroisonicotinamido)propyl)-2,3-dioxopiperazine-1-carboxamido)acetamido)-7-fluoro-2-hydroxy-3,4-dihydro-2H-benzo[e][1,2]oxaborinine-8-carboxylic acid] | 16 to 32 (≈ 20.5 to 41.1 µM) | < 10 | > 250 | < 10
4 | O=C(NCCCN1CCN(C(=O)N[C@@H](C(=O)N[C@H]2Cc3ccc(F)c(C(=O)O)c3OB2O)c2cc(F)c(O)c(O)c2Cl)C(=O)C1=O)c1ccncc1 [Example 294, (R)-3-((R)-2-(2-chloro-5-fluoro-3,4-dihydroxyphenyl)-2-(4-(3-(isonicotinamido)propyl)-2,3-dioxopiperazine-1-carboxamido)acetamido)-7-fluoro-2-hydroxy-3,4-dihydro-2H-benzo[e][1,2]oxaborinine-8-carboxylic acid] | 16 to 32 (≈ 21.5 to 43 µM) | < 10 | > 250 | < 10
5 | O=C(NCCCN1CCN(C(=O)N[C@@H](C(=O)N[C@H]2Cc3ccc(F)c(C(=O)O)c3OB2O)c2cc(F)c(O)c(O)c2Cl)C(=O)C1=O)c1cccc(O)c1Cl [Example 303, (R)-3-((R)-2-(4-(3-(2-chloro-3-hydroxybenzamido)propyl)-2,3-dioxopiperazine-1-carboxamido)-2-(2-chloro-5-fluoro-3,4-dihydroxyphenyl)acetamido)-7-fluoro-2-hydroxy-3,4-dihydro-2H-benzo[e][1,2]oxaborinine-8-carboxylic acid] | 4 to 8 (≈ 5.04 to 10.1 µM) | < 10 | > 250 | < 10
6 | O=C(O)c1c(F)ccc2c1OB(O)[C@@H](NC(=O)C(NC(=O)N1CCN(C3CCN(C(=O)c4cccc(O)c4)CC3)C(=O)C1=O)c1cc(F)c(O)c(O)c1Cl)C2 (stereo partly drawn) [Example 293, (3R)-3-(2-(2-chloro-5-fluoro-3,4-dihydroxyphenyl)-2-(4-(1-(3-hydroxybenzoyl)piperidin-4-yl)-2,3-dioxopiperazine-1-carboxamido)acetamido)-7-fluoro-2-hydroxy-3,4-dihydro-2H-benzo[e][1,2]oxaborinine-8-carboxylic acid] | 16 to 32 (≈ 20.4 to 40.7 µM) | < 10 | > 250 | < 10
